{"source": "paper PMC11191317", "about": "“PNSC928, a plant-derived compound, specifically disrupts CtBP2-p300 interaction and reduces inflammation in mice with acute respiratory distress syndrome” (Biology Direct, 2024)", "biological_target": "T1, CtBP2-p300 interaction (Mus musculus, UniProt B2RWS6+P56546)", "T1 construct": "In vivo immunoprecipitation with anti-CtBP2-coated protein G beads in MPAEpiC cells; endogenous in cells; host or cells: MPAEpiC (mouse pulmonary alveolar epithelial cells)", "T1 sequence (P56546 whole entry)": "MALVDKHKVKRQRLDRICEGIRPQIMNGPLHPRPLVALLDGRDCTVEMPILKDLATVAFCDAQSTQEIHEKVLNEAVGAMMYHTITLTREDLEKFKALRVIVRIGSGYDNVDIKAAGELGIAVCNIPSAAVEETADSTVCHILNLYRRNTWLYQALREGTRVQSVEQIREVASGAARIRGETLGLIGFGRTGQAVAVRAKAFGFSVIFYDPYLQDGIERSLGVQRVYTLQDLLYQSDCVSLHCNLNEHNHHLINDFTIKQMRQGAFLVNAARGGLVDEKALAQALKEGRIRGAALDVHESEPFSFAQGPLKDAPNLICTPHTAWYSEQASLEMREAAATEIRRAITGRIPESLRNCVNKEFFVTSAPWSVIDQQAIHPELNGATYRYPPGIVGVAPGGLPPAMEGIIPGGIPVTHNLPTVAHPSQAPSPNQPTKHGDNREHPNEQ", "T1 sequence (B2RWS6 whole entry)": "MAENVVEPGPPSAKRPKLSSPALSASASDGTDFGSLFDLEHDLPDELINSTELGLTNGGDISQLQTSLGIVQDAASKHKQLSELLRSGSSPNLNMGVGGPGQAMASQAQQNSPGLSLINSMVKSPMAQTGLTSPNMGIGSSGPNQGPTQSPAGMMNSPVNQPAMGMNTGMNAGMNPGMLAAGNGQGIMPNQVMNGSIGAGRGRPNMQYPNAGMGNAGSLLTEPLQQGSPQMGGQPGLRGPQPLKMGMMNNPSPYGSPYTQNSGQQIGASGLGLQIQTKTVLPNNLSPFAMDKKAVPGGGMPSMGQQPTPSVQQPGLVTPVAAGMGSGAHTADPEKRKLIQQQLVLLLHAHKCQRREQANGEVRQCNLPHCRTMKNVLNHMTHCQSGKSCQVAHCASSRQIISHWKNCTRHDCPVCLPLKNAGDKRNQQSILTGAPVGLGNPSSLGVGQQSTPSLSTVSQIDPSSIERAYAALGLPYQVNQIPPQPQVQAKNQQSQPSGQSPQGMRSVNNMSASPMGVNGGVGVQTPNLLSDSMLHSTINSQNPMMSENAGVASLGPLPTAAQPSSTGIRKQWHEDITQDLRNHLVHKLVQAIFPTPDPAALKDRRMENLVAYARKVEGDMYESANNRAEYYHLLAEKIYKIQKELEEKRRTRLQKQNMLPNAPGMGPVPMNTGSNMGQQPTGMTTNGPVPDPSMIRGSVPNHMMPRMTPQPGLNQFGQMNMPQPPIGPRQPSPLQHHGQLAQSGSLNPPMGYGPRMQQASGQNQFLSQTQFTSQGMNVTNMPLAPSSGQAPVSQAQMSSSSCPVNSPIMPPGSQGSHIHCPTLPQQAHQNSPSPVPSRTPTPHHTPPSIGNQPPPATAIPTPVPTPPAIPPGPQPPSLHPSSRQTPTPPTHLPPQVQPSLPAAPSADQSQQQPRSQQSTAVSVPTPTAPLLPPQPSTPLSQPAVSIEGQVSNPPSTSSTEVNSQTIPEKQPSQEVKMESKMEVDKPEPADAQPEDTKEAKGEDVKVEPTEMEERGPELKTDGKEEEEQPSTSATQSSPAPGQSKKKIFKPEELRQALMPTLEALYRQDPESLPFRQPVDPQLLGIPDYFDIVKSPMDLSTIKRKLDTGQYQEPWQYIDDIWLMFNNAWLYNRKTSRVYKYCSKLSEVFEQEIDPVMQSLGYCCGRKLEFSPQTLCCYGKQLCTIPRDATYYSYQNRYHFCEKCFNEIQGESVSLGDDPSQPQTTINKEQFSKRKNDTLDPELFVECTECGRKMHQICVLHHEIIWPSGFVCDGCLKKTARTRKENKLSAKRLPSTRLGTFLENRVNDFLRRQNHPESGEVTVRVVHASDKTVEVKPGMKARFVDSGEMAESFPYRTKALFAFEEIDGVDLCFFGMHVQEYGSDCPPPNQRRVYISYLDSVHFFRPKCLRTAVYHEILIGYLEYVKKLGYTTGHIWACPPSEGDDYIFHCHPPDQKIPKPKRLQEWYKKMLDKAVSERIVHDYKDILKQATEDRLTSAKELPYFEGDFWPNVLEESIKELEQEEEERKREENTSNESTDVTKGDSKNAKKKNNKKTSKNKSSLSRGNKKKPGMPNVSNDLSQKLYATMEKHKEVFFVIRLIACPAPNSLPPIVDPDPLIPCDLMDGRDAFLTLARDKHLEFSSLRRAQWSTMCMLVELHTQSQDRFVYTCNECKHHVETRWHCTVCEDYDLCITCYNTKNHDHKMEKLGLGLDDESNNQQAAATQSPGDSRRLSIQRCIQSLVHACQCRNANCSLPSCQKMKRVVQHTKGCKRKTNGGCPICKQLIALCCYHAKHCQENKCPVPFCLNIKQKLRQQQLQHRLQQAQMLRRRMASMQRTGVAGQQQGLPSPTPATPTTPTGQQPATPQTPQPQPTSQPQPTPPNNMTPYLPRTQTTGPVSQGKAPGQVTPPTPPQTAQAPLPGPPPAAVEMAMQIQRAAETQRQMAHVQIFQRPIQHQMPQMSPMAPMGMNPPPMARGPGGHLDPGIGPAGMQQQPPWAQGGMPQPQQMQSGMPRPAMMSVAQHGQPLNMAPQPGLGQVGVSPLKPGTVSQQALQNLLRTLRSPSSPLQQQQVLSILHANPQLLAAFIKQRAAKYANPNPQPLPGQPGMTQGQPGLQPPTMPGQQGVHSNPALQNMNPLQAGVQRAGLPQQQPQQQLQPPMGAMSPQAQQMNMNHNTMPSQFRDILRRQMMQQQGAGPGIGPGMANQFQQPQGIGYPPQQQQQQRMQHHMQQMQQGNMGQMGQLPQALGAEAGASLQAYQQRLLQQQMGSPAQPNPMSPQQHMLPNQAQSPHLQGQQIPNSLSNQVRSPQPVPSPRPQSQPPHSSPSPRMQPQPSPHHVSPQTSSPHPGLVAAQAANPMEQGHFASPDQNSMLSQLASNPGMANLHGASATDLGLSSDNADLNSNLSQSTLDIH", "assay": "Immunoprecipitation with anti-CtBP2 in MPAEpiC cells co-treated with LPS and PNSC928", "format": "cell-based", "conditions": "LPS + PNSC928 0, 11.8, 23.6, and 47.2 µM, 6 h", "procedure": "For LPS treatment, different knockdown (KD) cell lines—Control^KD, CtBP2^KD, p300^KD, and p65^KD, all derived from MPAEpiC—were seeded in 12-well plates and cultured at 37 °C until reaching 80% confluence. The cells were then treated with 200 ng/mL of LPS for 6 h, washed three times with PBS, and subjected to the required experiments. For experiments involving inhibitors of CtBP2, p300, and NF-κB, as well as the compound PNSC928, MPAEpiC, RAW264.7, FL83B, TKPTS, and HL-1 cells were seeded in 12-well plates and cultured at 37 °C to reach 80% confluence. Cells were then cotreated with 200 ng/mL LPS along with varying concentrations of the following chemicals: MTOB (0, 5, 10, or 20 mM), NSC95397 (0, 10, 20, or 40 µM), C646 (0, 3, 6, or 12 µM), A-485 (0, 5, 10, or 20 nM), TPCA1 (0, 150, 300, or 600 nM), BOT64 (0, 1, 2, or 4 µM), or PNSC928 (0, 11.8, 23.6, or 47.2 µM). After 6 h of treatment, cells were washed three times with PBS before proceeding with further experiments. […]\nTo probe this interaction, we established an AlphaScreen system that utilized GST-p300^BRD and His-CtBP2, binding to donor and acceptor beads, respectively (Fig. 4C). […] In vitro assays assessed the effects of PNSC928 on the CtBP2-p300^BRD interaction. […] Furthermore, we assessed the impact of combined LPS and PNSC928 treatment on the expression of key molecules in the NF-κB signaling pathway."}
{"smiles": "CC(=CCCC1=CCC(C2COC(=O)C2)OC1O)CCC1=C(C)CCCC1(C)C", "note": "(stereo not shown) [PNSC928]", "values": [{"measurement": "p300^BRD levels pulled down by CtBP2", "value": "dose-dependent decrease"}]}
